According to patent publication US20230124361A1, “SMALL MOLECULE STING ANTAGONISTS” (CURADEV PHARMA PVT. LTD., priority 2020, published 2023):

molecular target: T1, STING (Homo sapiens, UniProt Q86WV6, G230A/H232R/R293Q/R71H); test: Reporter gene expression assay in THP1-Dual cells (IRF pathway Lucia luciferase, 2',3'-cGAMP stimulation); assay type: cell-based; conditions: 10 min preincubation, 5 μM 2',3'-cGAMP, 20 hr, IRF reporter QUANTI-Luc, read-out: THP-1 (HAQ) Activity
T1 construct: host or cells: THP1-Dual cells (human THP-1 monocyte line with Lucia/SEAP reporters)
T1 sequence (Q86WV6 whole entry R71H/G230A/H232R/R293Q): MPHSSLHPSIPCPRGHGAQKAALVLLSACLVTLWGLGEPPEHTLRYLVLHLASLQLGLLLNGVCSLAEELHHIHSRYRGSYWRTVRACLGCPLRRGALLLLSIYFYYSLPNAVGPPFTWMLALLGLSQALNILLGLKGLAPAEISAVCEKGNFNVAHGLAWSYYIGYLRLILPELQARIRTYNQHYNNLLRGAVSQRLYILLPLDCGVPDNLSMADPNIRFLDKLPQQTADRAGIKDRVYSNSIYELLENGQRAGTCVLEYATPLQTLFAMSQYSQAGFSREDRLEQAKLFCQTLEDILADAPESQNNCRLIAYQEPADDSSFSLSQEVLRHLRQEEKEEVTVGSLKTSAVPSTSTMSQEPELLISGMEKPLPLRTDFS
Summary of the method: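 THP1-Dual cells preincubated 10 min with compound, then stimulated with 5 μM 2′,3′-cGAMP for 20 hr. Secreted Lucia luciferase (IRF reporter) measured in supernatant by luminescence; IC50 reported as ranges (A ≤1 μM, B >1–≤10 μM, C >10 μM).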

SMILES | IC50 [µM]
O=C(Nc1ccc(F)cc1)Nc1ccc2c(c1)N(Cc1ccccc1)C(=O)CS2 [Example 3, 1-(4-benzyl-3-oxo-3,4-dihydro-2H-benzo[b][i, 4]thiazin-6-yl)-3-(4-fluorophenyl) urea] | 1 to 10
NC(=O)CC1Sc2ccc(NC(=O)Nc3ccc4cc[nH]c4c3)cc2N(Cc2ccccc2)C1=O (centres unmarked) [Example 76, 2-(6-(3-(1H-Indol-6-yl)ureido)-4-benzyl-3-oxo-3,4-dihydro-2H-benzo[b][1,4]thiazin-2-yl)acetamide] | 1 to 10
O=C(Nc1ccc2c(c1)N(c1ccccc1)CCS2)Nc1ccc2cc[nH]c2c1 [Example 72, 3-(1H-Indol-6-yl)-3-(4-phenyl-3,4-dihydro-2H-benzo[b][1,4]thiazin-6-yl)urea] | ≤ 1
CN1Cc2ccc(NC(=O)Nc3ccc4cc[nH]c4c3)cc2N(Cc2ccccc2)C1=O [Example 40] | 1 to 10
Cc1cc2ccc(NC(=O)Nc3ccc4c(c3)OCC(=O)N4Cc3ccccc3)cc2[nH]1 [Example 92, 1-(4-benzyl-3-oxo-3,4-dihydro-2H-benzo[b][1, 4]oxazin-7-yl)-3-(2-methyl-1H-indol-6-yl)urea] | 1 to 10
NC(=O)c1ccc(NC(=O)Nc2ccc3c(c2)N(Cc2ccccc2)C(=O)CS3)cc1 [Example 33, 4-(3-(4-benzyl-3-oxo-3,4-dihydro-2H-benzo[b][1, 4]thiazin-6-yl)ureido) benzamide] | 1 to 10
O=C(Nc1ccc2c(c1)N(Cc1ccccc1)C(=O)CS2)c1ccc2cc[nH]c2c1 [Example 55, N-(4-benzyl-3-oxo-3,4-dihydro-2H-benzo[b][1,4]thiazin-6-yl)-1H-indole-6-carboxamide] | 1 to 10
NCC1COc2ccc(NC(=O)Nc3ccc4cc[nH]c4c3)cc2N1Cc1ccccc1 (centres unmarked) [Example 82] | > 10
O=C(Nc1ccc2c(c1)N(Cc1ccccc1)C(CCO)CO2)Nc1ccc2cc[nH]c2c1 (centres unmarked) [Example 80, 1-(4-Benzyl-3-(2-hydroxyethyl)-3-,4-dihydro-2H-benzo[b][1,4]oxazin-6-yl)-3-(1H-indol-6-yl)urea] | 1 to 10
N#CC1COc2ccc(NC(=O)Nc3ccc4cc[nH]c4c3)cc2N1Cc1ccccc1 (centres unmarked) [Example 81, 1-(4-Benzyl-3-cyano-3,4-dihydro-2H-benzo[b][1,4]oxazin-6-yl)-3-(1H-indol-6-yl)urea] | 1 to 10
Nc1cccc(CN2C(=O)CSc3ccc(NC(=O)Nc4ccc5cc[nH]c5c4)cc32)c1 [Example 53, l-(4-(3-aminobenzyl)-3-oxo-3,4-dihydro-2H-benzo[b][1, 4]thiazin-6-yl)-3-(1H-indol-6-yl)urea] | > 10
O=C(Nc1ccc2c(c1)N(Cc1ccccc1)C(=O)CS2)Nc1ccc2cc[nH]c2c1 [Example 1, 1-(4-Benzyl-3-oxo-3,4-dihydro-2H-benzo[b][1,4]thiazin-6-yl)-3-(1H-indol-6-yl)urea] | 1 to 10
O=C(c1ccccc1)N1CCSc2ccc(S(=O)(=O)NCc3ccco3)cc21 [Example 49, 4-benzoyl-N-(furan-2-ylmethyl)-3,4-dihydro-2H-benzo[b][1,4]thiazine-6-sulfonamide] | > 10
O=C(Nc1ccc2c(c1)N(Cc1ccccc1)C(CC(O)CO)CO2)Nc1ccc2cc[nH]c2c1 (centres unmarked) [Example 79, 1-(4-Benzyl-3-(2,3-dihydroxypropyl)-3,4-dihydro-2H-benzo[b][1,4]oxazin-6-yl)-3-(1H-indol-6-yl)urea] | 1 to 10
Cc1cc2cc[nH]c2cc1NC(=O)Nc1ccc2c(c1)OCC(=O)N2Cc1ccccc1 [Example 91, 1-(4-benzyl-3-oxo-3,4-dihydro-2H-benzo[b][1, 4]oxazin-7-yl)-3-(5-methyl-1H-indol-6-yl)urea] | > 10
O=C(Nc1ccc2c(c1)SCCN2Cc1ccccc1)Nc1ccc2cc[nH]c2c1 [Example 63, 1-(4-benzyl-3,4-dihydro-2H-benzo[b][1, 4]thiazin-7-yl)-3-(1H-indol-6-yl)urea] | > 10

Other lines, results leading:

IC50 [µM] | SMILES
1 to 10 | O=C(Nc1ccc2c(c1)OCC(=O)N2Cc1ccccn1)Nc1ccc2cc[nH]c2c1 [Example 149, 1-(iH-indol-6-yl)-3-(3-oxo-4-(pyridin-2-ylmethyl)-3,4-dihydro-2H-benzo[b][1, 4]oxazin-7-yl)urea]
1 to 10 | O=C(Nc1ccc2c(c1)NCC2)Nc1ccc2c(c1)OCC(=O)N2Cc1ccccc1 [Example 142, 1-(4-benzyl-3-oxo-3,4-dihydro-2H-benzo[b][1, 4]oxazin-7-yl)-3-(indolin-6-yl)urea]
≤ 1 | O=C(Nc1ccc2c(c1)OCC(=O)N2Cc1ccc(F)cc1Cl)Nc1ccc2cc[nH]c2c1 [Example 94, 1-(4-(2-chloro-4-fluorobenzy 1)-3-oxo-3,4-dihydro-2H-benzo[b][1,4]oxazin-7-yl)-3-(1H-indol-6-yl)urea]
1 to 10 | O=C(Nc1ccc2c(c1)OCC(=O)N2CC1COCCO1)Nc1ccc2cc[nH]c2c1 (stereo not drawn) [Example 145, l-(4-((1,4-dioxan-2-yl)methyl)-3-oxo-3,4-dihydro-2H-benzo[b][1, 4]oxazin-7-yl)-3-(1H-indol-6-yl)urea]
1 to 10 | O=C(Nc1ccc2c(c1)OCC(=O)N2Cc1ccncc1)Nc1ccc2cc[nH]c2c1 [Example 147, 1-(iH-indol-6-yl)-3-(3-oxo-4-(pyridin-4-ylmethyl)-3,4-dihydro-2H-benzo[b][1, 4]oxazin-7-yl)urea]
≤ 1 | Cc1cc(CN2C(=O)COc3cc(NC(=O)Nc4ccc5cc[nH]c5c4)ccc32)ccc1F [Example 108, 1-(4-(4-fluoro-3-methylbenzyl)-3-oxo-3,4-dihydro-2H-benzo[b][1,4]oxazin-7-yl)-3-(1H-indol-6-yl)urea]
1 to 10 | O=C(Nc1ccc2cc[nH]c2c1)Nc1cc2c(cc1Br)N(Cc1ccccc1)C(=O)CO2 [Example 166, 1-(4-benzyl-6-bromo-3-oxo-3,4-dihydro-2H-benzo[b][1, 4]oxazin-7-yl)-3-(1H-indol-6-yl)urea]
1 to 10 | COC(=O)c1ccccc1CN1C(=O)COc2cc(NC(=O)Nc3ccc4cc[nH]c4c3)ccc21 [Example 140, methyl 2-((7-(3-(1H-indol-6-yl)ureido)-3-oxo-2,3-dihydro-4H-benzo[b][1, 4]oxazin-4-yl)methyl) benzoate]
1 to 10 | O=C(Nc1ccc2c(c1)OCC(=O)N2CC1CCCO1)Nc1ccc2cc[nH]c2c1 (centres unmarked) [Example 146, 1-(1H-indol-6-yl)-3-(3-oxo-4-((tetrahydro-furan-2-yl)methyl)-3,4-dihydro-2H-benzo[b][1, 4]oxazin-7-yl)urea]
1 to 10 | O=C(Nc1ccc2c(c1)OCC(=O)N2Cc1ccncn1)Nc1ccc2cc[nH]c2c1 [Example 160, 1-(1H-indol-6-yl)-3-(3-oxo-4-(pyrimidin-4-ylmethyl)-3,4-dihydro-2H-benzo[b][1, 4]oxazin-7-yl)urea]
≤ 1 | O=C(Nc1ccc2c(c1)OCC(=O)N2Cc1ccc2nonc2c1)Nc1ccc2cc[nH]c2c1 [Example 129, l-(4-(benzo[c][1,2,5]oxadiazol-5-ylmethyl)-3-oxo-3,4-dihydro-2H-benzo[b][1,4]oxazin-7-yl)-3-(1H-indol-6-yl)urea]
≤ 1 | O=C(Nc1ccc2c(c1)N(Cc1c(F)cccc1Cl)CCO2)Nc1ccc2cc[nH]c2c1 [Example 169, 1-(4-(2-chloro-6-fluorobenzyl)-3,4-dihydro-2H-benzo[b][1, 4]oxazin-6-yl)-3-(1H-indol-6-yl)urea]
> 10 | O=C(Nc1ccc2c(c1)OCC(=O)N2Cc1ncno1)Nc1ccc2cc[nH]c2c1 [Example 163, 1-(4-((1,2,4-oxadiazol-5-yl)methyl)-3-oxo-3,4-dihydro-2H-benzo[b][1,4]oxazin-7-yl)-3-(1H-indol-6-yl)urea]
1 to 10 | O=C(Nc1ccc2c(c1)OCC(=O)N2Cc1ccccc1C(F)(F)F)Nc1ccc2cc[nH]c2c1 [Example 113, 1-(1H-indol-6-yl)-3-(3-oxo-4-(2-(trifluoromethyl)benzyl)-3,4-dihydro-2H-benzo[b][1,4]oxazin-7-yl)urea]
1 to 10 | O=C(Nc1ccc2c(c1)OCC(=O)N2Cc1cccc(O)c1)Nc1ccc2cc[nH]c2c1 [Example 152, 1-(4-(3-hydroxybenzyl)-3-oxo-3,4-dihydro-2H-benzo[b][1, 4]oxazin-7-yl)-3-(1H-indol-6-yl)urea]
> 10 | O=C(Nc1ccc2c(c1)OCC(=O)N2Cc1cnccn1)Nc1ccc2cc[nH]c2c1 [Example 154, 1-(1H-indol-6-yl)-3-(3-oxo-4-(pyrazin-2-ylmethyl)-3,4-dihydro-2H-benzo[b][i, 4]oxazin-7-yl)urea]
1 to 10 | O=C(Nc1ccc2c(c1)N(Cc1ccccc1)CCO2)Nc1cnc2cc[nH]c2c1 [Example 177, 1-(4-benzyl-3,4-dihydro-2H-benzo[b][1, 4]oxazin-6-yl)-3-(1H-pyrrolo[3,2-b]pyridin-6-yl)urea]
> 10 | Nc1ncc2c(n1)CCN(C(=O)Nc1ccc3c(c1)N(Cc1ccccc1)C(=O)CS3)C2 [Example 194, 2-amino-N-(4-benzyl-3-oxo-3,4-dihydro-2H-benzo[b][1, 4]thiazin-6-yl)-7,8-dihydropyrido [4,3-d] pyrimidine-6(5H)-carboxamide]
1 to 10 | N#Cc1cccc(CN2C(=O)COc3cc(NC(=O)Nc4ccc5cc[nH]c5c4)ccc32)c1 [Example 116, l-(4-(3-cyanobenzyl)-3-oxo-3,4-dihydro-2H-benzo[b][1, 4]oxazin-7-yl)-3-(1H-indol-6-yl)urea]
> 10 | O=C(Nc1ccc2c(c1)OCC(=O)N2Cc1ccc[nH]c1=O)Nc1ccc2cc[nH]c2c1 [Example 158, 1-(1H-indol-6-yl)-3-(3-oxo-4-((2-oxo-1,2-dihydropyridin-3-yl)methyl)-3,4-dihydro-2H-benzo[b][1, 4]oxazin-7-yl)urea]
> 10 | O=C1CSc2ccc(NC(=O)Nc3ccc4cc[nH]c4c3)cc2N1 [Example 195, 1-(1H-indol-6-yl)-3-(3-oxo-3,4-dihydro-2H-benzo[b][1, 4]thiazin-6-yl)urea]
1 to 10 | COc1ccc(OC)c(CN2C(=O)COc3cc(NC(=O)Nc4ccc5cc[nH]c5c4)ccc32)c1 [Example 115, 1-(4-(2,5-dimethoxybenzyl)-3-oxo-3,4-dihydro-2H-benzo[b][1,4]oxazin-7-yl)-3-(1H-indol-6-yl)urea]
